Values quoted from earlier work, collected in patent US6630178B1, “Composition comprising soy protein, dietary fibres and a phytoestrogen compound and use thereof in the prevention and/or treatment of cardiovascular diseases” (Nutri Pharma Asa, priority 1998, dated 2003).

Tested on: estrogenic effect
Conditions: estradiol = 100; in vitro

O=c1c(-c2ccc(O)cc2)coc2cc(O)ccc12 [daidzein]
relative estrogenic potency as compared to estradiol: 0.013
